Reference: ChEMBL document CHEMBL1201862, “PubChem BioAssay data set” (2004)
Active and inactive are the calls of the source.

Legend:
[1] = molecular target: T1, Polyadenylate-binding protein 1 (Homo sapiens, UniProt P11940); test: PABP1 MLLE–PAM2 binding inhibitor potency, dose response, biochemical, fluorescence polarization, FITC-PAM2 peptide (AID 602259); format: functional; settings: read-out: IC50_Mean
[2] = molecular target: T1, Polyadenylate-binding protein 1; test: PABP1 MLLE–PAM2 interaction inhibitors, dose response, miRNA deadenylation inhibitor project, biochemical, fluorescence polarization, Cy5-PAM2 peptide, secondary (AID 602260); format: functional; settings: read-out: IC50_Mean
[3] = molecular target: Luciferin 4-monooxygenase (Photinus pyralis, UniProt P08659); test: firefly luciferase enzyme inhibitors, dose response, biochemical, luminescence (AID 1891)
[4] = molecular target: T2, RNA-binding protein pos-1 (Caenorhabditis elegans, UniProt G5EF15); test: inhibitors of POS-1/mex-3 RNA binding, dose response, biochemical, fluorescence polarization (AID 1964);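 further: purified POS-1 fused to maltose binding protein made in E. coli; potency of compounds blocking POS-1 binding to fluorescent RNA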
T2 sequence (G5EF15 whole entry): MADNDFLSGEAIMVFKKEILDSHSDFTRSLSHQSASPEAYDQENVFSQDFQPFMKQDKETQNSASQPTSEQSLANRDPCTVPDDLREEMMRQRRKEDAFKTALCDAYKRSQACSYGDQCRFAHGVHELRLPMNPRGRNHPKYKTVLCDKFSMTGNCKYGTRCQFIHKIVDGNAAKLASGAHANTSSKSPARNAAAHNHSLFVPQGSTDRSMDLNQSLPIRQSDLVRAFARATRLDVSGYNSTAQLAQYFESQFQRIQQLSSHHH

[5] = molecular target: T3, Zinc finger protein mex-5 (Caenorhabditis elegans, UniProt Q9XUB2); test: MEX-5/TCR-2 RNA interaction inhibitors, dose response, biochemical, C. elegans, fluorescence polarization (AID 1960)
T3 sequence (Q9XUB2 whole entry): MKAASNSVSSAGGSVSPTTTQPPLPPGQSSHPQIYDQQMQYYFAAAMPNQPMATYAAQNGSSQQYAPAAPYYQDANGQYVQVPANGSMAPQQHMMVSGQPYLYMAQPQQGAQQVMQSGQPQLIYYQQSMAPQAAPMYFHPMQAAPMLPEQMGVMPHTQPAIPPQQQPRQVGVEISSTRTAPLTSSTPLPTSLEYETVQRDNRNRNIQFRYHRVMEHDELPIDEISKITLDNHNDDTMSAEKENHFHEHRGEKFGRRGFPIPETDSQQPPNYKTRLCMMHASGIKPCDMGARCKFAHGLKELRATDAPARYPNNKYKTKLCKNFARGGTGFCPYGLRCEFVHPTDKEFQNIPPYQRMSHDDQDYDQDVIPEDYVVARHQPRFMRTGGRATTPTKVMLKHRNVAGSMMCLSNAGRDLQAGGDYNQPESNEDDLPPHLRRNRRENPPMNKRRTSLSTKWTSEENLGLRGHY

[6] = intracellular Trypanosoma cruzi inhibitors in host cells – cell-based, plate reader, cherry-pick samples, set 3, dose response (AID 651818); format: functional;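 further: compounds incubated with infected cells for about four days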
[7] = molecular target: FAD-linked sulfhydryl oxidase ALR (Homo sapiens, UniProt P55789); test: inhibitors of human ALR sulfhydryl oxidase, dose response, biochemical, H2O2 detection, luminescence, cherry-pick (AID 493248)
Genome polyprotein = Genome polyprotein (dengue virus type 2, UniProt P29990); test: Dengue-2 NS5 methyltransferase inhibitors, primary screen, biochemical, confirmation dose response (AID 588689); format: functional
[8] = growth suppression of beta-catenin-knockout colon cells, dose response, cell-based, HCT116, human colon tumor (AID 1045); format: functional;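 further: HCT116 colon tumor cells with beta catenin knocked out; cells exposed to compound for 60 hours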
[9] = molecular target: T4, Ubiquitin-conjugating enzyme E2 N (Homo sapiens, UniProt P61088); format: functional;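 further: Dose-response confirmation in a TR-FRET assay detecting UBC13-driven polyubiquitin chain formation, inhibition measured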
T4 sequence (P61088 whole entry): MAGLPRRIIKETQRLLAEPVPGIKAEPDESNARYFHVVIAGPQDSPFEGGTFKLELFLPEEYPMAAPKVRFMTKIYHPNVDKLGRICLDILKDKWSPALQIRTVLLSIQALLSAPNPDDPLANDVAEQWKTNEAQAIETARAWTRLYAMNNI

[10] = growth suppression of PTEN-null colon cells, dose response, cell-based, HCT116 PTEN knockout (AID 1047); format: functional;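 further: HCT116 colon tumor cells with PTEN knocked out; cells exposed to compound for 60 hours before readout; potency for loss of cell viability measured by luminescence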

T1 sequence (P11940 whole entry): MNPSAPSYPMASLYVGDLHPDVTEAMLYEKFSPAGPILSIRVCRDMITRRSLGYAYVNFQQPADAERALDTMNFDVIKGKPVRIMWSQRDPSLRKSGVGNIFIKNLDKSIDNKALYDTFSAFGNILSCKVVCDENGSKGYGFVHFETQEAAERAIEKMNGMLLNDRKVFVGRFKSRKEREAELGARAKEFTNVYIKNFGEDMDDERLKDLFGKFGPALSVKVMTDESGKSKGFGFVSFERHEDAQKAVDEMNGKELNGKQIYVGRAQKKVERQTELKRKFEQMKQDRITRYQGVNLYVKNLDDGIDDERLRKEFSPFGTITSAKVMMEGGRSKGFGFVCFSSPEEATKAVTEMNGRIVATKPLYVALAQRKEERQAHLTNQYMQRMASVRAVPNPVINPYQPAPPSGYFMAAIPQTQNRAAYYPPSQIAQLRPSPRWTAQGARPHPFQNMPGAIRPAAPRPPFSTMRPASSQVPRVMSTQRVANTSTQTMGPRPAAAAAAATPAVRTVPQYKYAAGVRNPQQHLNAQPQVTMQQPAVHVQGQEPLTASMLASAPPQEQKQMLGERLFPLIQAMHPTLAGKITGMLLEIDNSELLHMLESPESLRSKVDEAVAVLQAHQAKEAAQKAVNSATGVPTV
Sequence of FAD-linked sulfhydryl oxidase ALR (P55789 whole entry): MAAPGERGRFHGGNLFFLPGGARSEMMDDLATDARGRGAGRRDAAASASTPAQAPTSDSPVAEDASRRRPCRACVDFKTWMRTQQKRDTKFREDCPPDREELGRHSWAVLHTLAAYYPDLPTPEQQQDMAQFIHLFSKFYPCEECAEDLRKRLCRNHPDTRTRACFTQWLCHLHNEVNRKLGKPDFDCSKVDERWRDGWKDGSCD
Sequence of Genome polyprotein (P29990 2492-3391 limits assumed): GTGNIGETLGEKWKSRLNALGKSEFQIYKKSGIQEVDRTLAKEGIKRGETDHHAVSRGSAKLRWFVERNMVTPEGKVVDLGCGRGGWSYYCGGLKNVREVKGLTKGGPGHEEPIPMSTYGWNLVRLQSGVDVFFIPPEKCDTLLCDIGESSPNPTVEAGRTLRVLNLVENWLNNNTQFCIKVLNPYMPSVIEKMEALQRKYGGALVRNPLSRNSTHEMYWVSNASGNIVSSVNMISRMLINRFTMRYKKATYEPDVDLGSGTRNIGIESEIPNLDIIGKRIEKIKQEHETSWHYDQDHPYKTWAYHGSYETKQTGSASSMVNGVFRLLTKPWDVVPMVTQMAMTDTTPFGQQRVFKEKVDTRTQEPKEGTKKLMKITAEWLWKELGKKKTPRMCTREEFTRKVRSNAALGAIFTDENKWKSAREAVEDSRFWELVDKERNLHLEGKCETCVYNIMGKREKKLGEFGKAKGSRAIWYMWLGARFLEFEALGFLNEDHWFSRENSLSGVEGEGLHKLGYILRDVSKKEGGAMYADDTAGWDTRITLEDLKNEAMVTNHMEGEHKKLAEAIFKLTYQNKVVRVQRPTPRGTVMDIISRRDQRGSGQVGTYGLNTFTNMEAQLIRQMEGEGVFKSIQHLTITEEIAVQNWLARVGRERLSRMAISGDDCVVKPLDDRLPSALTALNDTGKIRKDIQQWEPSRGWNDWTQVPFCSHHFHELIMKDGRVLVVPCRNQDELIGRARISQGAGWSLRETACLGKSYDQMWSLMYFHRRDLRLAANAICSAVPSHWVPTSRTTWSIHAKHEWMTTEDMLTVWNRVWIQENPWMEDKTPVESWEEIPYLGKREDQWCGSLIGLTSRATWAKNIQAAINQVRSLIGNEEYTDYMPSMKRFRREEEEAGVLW
Sequence of Luciferin 4-monooxygenase (P08659 whole entry, the tested form may be a part): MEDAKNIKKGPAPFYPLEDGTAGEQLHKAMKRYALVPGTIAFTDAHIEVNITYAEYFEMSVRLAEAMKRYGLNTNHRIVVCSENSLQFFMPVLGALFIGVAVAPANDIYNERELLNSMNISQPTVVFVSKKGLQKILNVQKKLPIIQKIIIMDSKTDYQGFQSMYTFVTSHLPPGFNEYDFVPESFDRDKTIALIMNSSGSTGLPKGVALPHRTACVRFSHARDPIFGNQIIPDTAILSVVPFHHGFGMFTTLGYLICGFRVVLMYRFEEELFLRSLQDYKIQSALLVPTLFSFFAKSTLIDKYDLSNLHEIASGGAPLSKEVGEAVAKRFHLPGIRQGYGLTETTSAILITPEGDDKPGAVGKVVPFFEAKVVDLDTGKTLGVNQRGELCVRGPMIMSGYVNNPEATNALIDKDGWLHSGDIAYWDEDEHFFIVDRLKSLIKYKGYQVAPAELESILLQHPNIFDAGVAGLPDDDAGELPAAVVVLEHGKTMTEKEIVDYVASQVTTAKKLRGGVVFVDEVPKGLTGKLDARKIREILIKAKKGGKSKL

Row | Structure (SMILES) | IC50 [1] | IC50 [2] | AC50 [7] | also measured
1 | O=c1[nH]c2ccc(NC(=S)Nc3ccccc3Cl)cc2[nH]1 | > 66 µM (inactive) | > 66 µM (inactive) |  | EC50 [3]: > 112 µM (not active)
2 | O=C(NN=Cc1sc(=O)[n-]c1-[n+]1ccc(-c2ccncc2)cc1)c1ccccc1O | 42.7 µM (inactive) | 33.3 µM (inactive) |  | EC50 [4]: 11.9 µM (active); EC50 [5]: 10.7 µM (active)
3 | CCOC(=O)CNC(=O)CSc1nc(-c2cccc(C)c2)ns1 | > 66 µM (inactive) | > 66 µM (inactive) |  | 
4 | C[C@H](CO)N1C[C@H](C)[C@H](CN(C)Cc2ccc(C(F)(F)F)cc2)Oc2c(NC(=O)Nc3ccc(C(F)(F)F)cc3)cccc2C1=O |  |  |  | AC50 [6]: 4.77 µM (active)
5 | CCC(c1nnnn1Cc1ccc(F)cc1)N(CCCO)Cc1cc2cc3c(cc2nc1O)OCO3 (configuration not stated) | > 66 µM (inactive) | > 66 µM (inactive) |  | 
6 | CSCC[C@H](NC(=O)N1CCn2c1nc1ccccc12)C(=O)N1CCCCC1 |  |  | 4.31 µM (active) | 
7 | Cc1noc(C)c1-c1csc(N2CCC(C(N)=O)CC2)n1 | > 66 µM (inactive) | > 66 µM (inactive) |  | 
8 | C/C(=N\NC(=O)CN1CCN(S(=O)(=O)c2ccc(C)cc2)CC1)c1ccc(O)cc1 |  |  | 2.92 µM (active) | 
9 | Cn1cccc1/C=N/n1c(S)nnc1-c1ccc(Cl)cc1Cl |  |  | 1.07 µM (active) | 
10 | CC1CN(C2CCCCC2)c2nc3c(c(=O)[nH]c(=O)n3C)n2C1 (configuration not stated) |  |  | 1.81 µM (active) | 
11 | COc1ccc(/C=C2/SC(=S)N(NS(=O)(=O)c3ccc(C)cc3)C2=O)cc1 |  |  |  | IC50 (Genome polyprotein): 56.9 µM (active)
12 | CN1CCN(c2ccc(S(=O)(=O)N3CCCCC3)cc2NC(=O)c2ccc3ccccc3c2)CC1 |  |  |  | EC50 [8]: 17.8 µM (active); IC50 [9]: > 20 µM (inactive); EC50 [10]: 16 µM (active)
